pIC50, pKi: −log10 of the molar value. Where a name gives a salt, the structure may show the parent alone. Read-outs that look alike come from different tables or passages of the source.
What was measured:
[1] = tested on: staphyloxanthin (STX) biosynthesis in S. aureus; test: Staphyloxanthin biosynthesis inhibition assay; assay type: cell-based, Staphylococcus aureus
Protocol: The question next arises: how potent are these compounds in inhibiting STX biosynthesis in S. aureus? We thus treated S. aureus bacteria with serially diluted compounds at 37° C. for 3 days, after which the STX pigment was extracted with methanol. Optical densities were measured at 450 nm and IC50 values for inhibition of pigment formation for each compound were calculated using a standard dose-response curve. The rank ordered IC50 values of the 38 compounds investigated are shown in Table 7 and dose-response curves of representative compounds are shown in FIG. 2.
The S. aureus strain used was the WT clinical isolate (Pig1) (4). S. aureus was cultured in THB (1 mL) in the presence of inhibitor compounds for 72 h, in duplicate. Cells were then centrifuged and washed twice with PBS. STX was extracted with MeOH and the O.D. was determined at 450 nm using a Perkin Elmer MBA 2000 (Norwalk, Conn.) spectrophotometer.

[2] = target: S. aureus CrtM (dehydrosqualene synthase) (Staphylococcus aureus, UniProt A9JQL9); test: CrtM enzyme inhibition assay; conditions: for as active as 1 in CrtM inhibition: fold more active
[3] = Staphylococcus aureus, read-out: IC50(STX)
[4] = Staphylococcus aureus, 72 h, read-out: Staphyloxanthin IC50
[5] = read-out: CrtM enzyme experimental activity IC50, Table 5
[6] = Table 7, S. aureus, 37° C., 3 days, read-out: Staphyloxanthin IC50
[7] = read-out: CrtM IC50 values, Table 4
[8] = Staphylococcus aureus, read-out: IC50 (STX)

Sequence of S. aureus CrtM (dehydrosqualene synthase) (A9JQL9 whole entry): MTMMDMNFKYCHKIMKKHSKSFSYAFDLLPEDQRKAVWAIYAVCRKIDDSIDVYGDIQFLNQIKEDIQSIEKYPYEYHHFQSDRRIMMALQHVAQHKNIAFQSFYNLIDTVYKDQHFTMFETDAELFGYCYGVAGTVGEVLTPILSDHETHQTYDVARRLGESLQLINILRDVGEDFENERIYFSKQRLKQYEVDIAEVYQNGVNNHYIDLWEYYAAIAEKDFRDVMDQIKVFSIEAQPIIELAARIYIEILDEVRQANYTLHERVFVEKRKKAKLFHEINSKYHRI

O=P(O)(O)CS(=O)(=O)NCCCc1cccc(Oc2ccccc2)c1 [compound 841]
pIC50 [1, 3]: < 3.30
pIC50 [2]: 2.79

CCCOc1cccc(-c2ccc(CCCC(P(=O)(O)O)S(=O)(=O)O)cc2)c1 (stereo not drawn) [Compound 13, 1-Phosphono-4-[4-(3-propoxyphenyl)phenyl]butylsulfonic acid tripotassium salt]
pIC50 [1, 4]: 6.31
pIC50 [2, 5]: 3.91

O=C(CP(=O)(O)O)NCCCc1cccc(Oc2ccc(Cl)cc2)c1 [compound 926]
pIC50 [1, 3]: 7.55
pIC50 [2]: 4.82

1-Phosphono-4-[3-(3,4-dichlorophenoxy)phenyl]butylsulfonic acid tripotassium salt [Compound 31]
pIC50 [1, 6]: 7.96
CrtM enzyme experimental activity pIC50 ([2]; Table 5): 5.65
pIC50 [2, 7]: 5.66
pIC50 [2, 5]: 5.66

O=C(CP(=O)(O)O)N(O)CCCc1cccc(Oc2ccccc2)c1 [compound 808]
pIC50 [1, 3]: 6.97
pIC50 ([1]; Staphylococcus aureus, read-out: IC50(STX), cell activity): 6.96
pIC50 [2]: 4.17

1-Phosphono-4-[3-(3,5-dichlorophenoxy)phenyl]butylsulfonic acid tripotassium salt [Compound 34]
pIC50 [1, 6]: 7.29
CrtM enzyme experimental activity pIC50 ([2]; Table 5): 5.2
pIC50 [2, 7]: 5.20
pIC50 [2, 5]: 5.20

CCCc1ccc(Oc2cccc(CCCC(P(=O)([O-])[O-])S(=O)(=O)[O-])c2)cc1.[K+].[K+].[K+] (stereo not drawn) [Compound 6, 1-Phosphono-4-[3-(4-propylphenoxy)phenyl]butylsulfonic acid tripotassium salt]
pIC50 [1, 4]: 7.03
pIC50 [1, 8]: 7.00
pIC50 ([1]; Staphylococcus aureus, read-out: IC50 for STX biosynthesis): 7.03
pKi [2]: ~8.30
as active as 1 in CrtM inhibition ([2]; versus 1): ~4 ×
pIC50 ([2]; read-out: IC50 (CrtM), Table 1): 5.66

1-Phosphono-4-[3-(4-chlorophenoxy)phenyl]butylsulfonic acid tripotassium salt [Compound 24]
pIC50 [1, 6]: 7.41
CrtM enzyme experimental activity pIC50 ([2]; Table 5): 5.6
pIC50 [2, 7]: 5.60
pIC50 [2, 5]: 5.60

O=C(CP(=O)(O)O)NCCCc1cccc(Oc2ccc(Cl)c(Cl)c2)c1 [compound 886]
pIC50 [1, 3]: 7.40
pIC50 [2]: 5.15

CP(=O)([O-])C(CCCc1ccc(-c2ccccc2)cc1)P(=O)([O-])[O-].[K+].[K+].[K+] (stereo not drawn) [Compound 4, dipotassium salt]
pIC50 [1, 4]: 5.85

1-Phosphono-4-[3-(4-fluorophenoxy)-6-fluoro-phenyl]butylsulfonic acid tripotassium salt [Compound 35]
pIC50 [1, 6]: 7.23
CrtM enzyme experimental activity pIC50 ([2]; Table 5): 5.68
pIC50 [2, 7]: 5.68
pIC50 [2, 5]: 5.68

CCn1c2ccccc2c2cc(CCCC(P(=O)(O)O)S(=O)(=O)O)ccc21 (stereo not drawn) [Compound 19, 1-Phosphono-4-(9-ethylcarbazole-3-yl)butylsulfonic acid tripotassium salt]
pIC50 [1, 4]: 3.58

1-Phosphono-4-[3-(benzofuran-5-yloxy)phenyl]butylsulfonic acid tripotassium salt [Compound 32]
pIC50 [1, 6]: 7.82
CrtM enzyme experimental activity pIC50 ([2]; Table 5): 5.67
pIC50 [2, 7]: 5.68
pIC50 [2, 5]: 5.68

1-Phosphono-4-[3-(4-phenoxyphenoxy)phenyl]butylsulfonic acid tripotassium salt [Compound 28]
pIC50 [1, 6]: 7.00

1-Phosphono-4-[3-(2-trifluoromethylphenoxy)phenyl]butylsulfonic acid tripotassium salt [Compound 23]
pIC50 [1, 6]: 6.34
CrtM enzyme experimental activity pIC50 ([2]; Table 5): 4.27
pIC50 [2, 7]: 4.27
pIC50 [2, 5]: 4.27

CC(C)(C(=O)NCCCc1cccc(Oc2ccccc2)c1)P(=O)(O)O [compound 847]
pIC50 [1, 3]: < 3.30
pIC50 [2]: 3.69

1-Phosphono-4-[3-(3,5-difluorophenoxy)phenyl]butylsulfonic acid tripotassium salt [Compound 33]
pIC50 [1, 6]: 7.82
CrtM enzyme experimental activity pIC50 ([2]; Table 5): 5.34
pIC50 [2, 7]: 5.34
pIC50 [2, 5]: 5.34

O=C(CP(=O)(O)O)N(O)CCCc1cccc(Oc2ccc(Cl)c(Cl)c2)c1 [compound 927]
pIC50 [1, 3]: 7.38
pIC50 [2]: 4.17

Cc1ccc(-c2ccc(CCCN(O)C(=O)CP(=O)(O)O)cc2)cc1 [compound 826]
pIC50 [1, 3]: 5.39
pIC50 [2]: < 2.82

O=P(O)(O)C(CCCc1cccc(Oc2ccc(Cc3ccccc3)cc2)c1)S(=O)(=O)O (stereo not drawn) [Compound 26, 1-Phosphono-4-[3-(4-benzylphenoxy)phenyl]butylsulfonic acid tripotassium salt]
pIC50 [1, 4]: 7.31
pIC50 [1, 8]: 7.31
pIC50 ([2]; read-out: IC50 (CrtM), Table 1): 4.87

O=C(CS(=O)(=O)O)NCCCc1cccc(Oc2ccccc2)c1 [compound 884]
pIC50 [1, 3]: 4.82
pIC50 [2]: 3.77

1-Phosphono-4-[3-(2-fluorophenoxy)phenyl]butylsulfonic acid tripotassium salt [Compound 21]
pIC50 [1, 6]: 6.29
CrtM enzyme experimental activity pIC50 ([2]; Table 5): 5.16
pIC50 [2, 7]: 5.16
pIC50 [2, 5]: 5.16

Cc1ccc(-c2ccc(CCCC(P(=O)(O)O)S(=O)(=O)O)cc2)cc1 (stereo not drawn) [Compound 11, 1-Phosphono-4-[4-(4-methylphenyl)phenyl]butylsulfonic acid tripotassium salt]
pIC50 [1, 4]: 6.74
pIC50 [2, 5]: 4.61

O=P([O-])([O-])C(CCCc1cccc(Oc2ccccc2Cc2ccccc2)c1)S(=O)(=O)[O-].[K+].[K+].[K+] (stereo not drawn) [Compound 8, 1-Phosphono-4-[3-(2-benzylphenoxy)phenyl]butylsulfonic acid tripotassium salt]
pIC50 [1, 4]: 7.72
CrtM enzyme experimental activity pIC50 ([2]; Table 5): 4.43
less active than 1 in CrtM inhibition ([2]; fold, versus 1): ~5 ×

O=P(O)(O)CP(=O)(O)CCCCc1cccc(Oc2ccccc2)c1 [compound 885]
pIC50 [1, 3]: 6.36
pIC50 [2]: 4.35

O=C(CP(=O)(O)O)NCCCc1cccc(Oc2ccccc2)c1 [compound 830]
pIC50 [1, 3]: 8.10
pIC50 [2]: 5.05

O=P(O)(O)[C@@H](CCCc1cccc(Oc2ccccc2)c1)S(=O)(=O)O [Compound (R)-1, (1R)-1-Phosphono-4-(3-phenoxyphenyl)butylsulfonic acid tripotassium salt]
pIC50 [1, 4]: 6.51

O=C(CP(=O)(O)O)N(O)Cc1cccc(-c2cccc(-c3ccccc3)c2)c1 [compound 810]
pIC50 [1, 3]: 3.80
pIC50 [2]: 3.22

O=C(O)CC(=O)NCCCc1cccc(Oc2ccccc2)c1 [compound 888]
pIC50 [2]: < 2.82

O=P([O-])([O-])C(CCCc1ccc(Oc2ccccc2)cc1)S(=O)(=O)[O-].[K+].[K+].[K+] (stereo not drawn) [Compound 18, 1-Phosphono-4-(4-phenoxyphenyl)butylsulfonic acid tripotassium salt]
pIC50 [1, 4]: 6.72

O=P(O)(O)C(CCCc1cccc(Nc2ccccc2)c1)S(=O)(=O)O (stereo not drawn) [Compound 16, 1-Phosphono-4-(3-phenylaminophenyl)butylsulfonic acid tripotassium salt]
pIC50 [1, 4]: 6.30
pIC50 ([2]; read-out: IC50 against CrtM): 4.36

CN(CCCc1cccc(Oc2ccccc2)c1)C(=O)CP(=O)(O)O [compound 848]
pIC50 [1, 3]: 5.07
pIC50 [2]: 3.71

O=C(CP(=O)(O)O)NCCc1cccc(Oc2ccccc2)c1 [compound 897]
pIC50 [1, 3]: 5.52
pIC50 [2]: 3.49

CCCCc1ccc(-c2ccc(CCCC(P(=O)([O-])[O-])S(=O)(=O)[O-])cc2)cc1.[K+].[K+].[K+] (stereo not drawn) [Compound 12, 1-Phosphono-4-[4-(4-butylphenyl)phenyl]butylsulfonic acid tripotassium salt]
pIC50 [1, 4]: 6.80

O=C(CCCCc1ccc(Oc2ccccc2)cc1)CP(=O)(O)O [compound 839]
pIC50 [1, 3]: 4.55
pIC50 [2]: 2.82

O=P([O-])([O-])C(CCCc1cccc(Oc2ccc(F)cc2)c1)S(=O)(=O)[O-].[K+].[K+].[K+] (stereo not drawn) [Compound 5, 1-Phosphono-4-[3-(4-fluorophenoxy)phenyl]butylsulfonic acid tripotassium salt]
pIC50 [1, 4]: 7.28
pIC50 [2]: 5.63
pKi [2]: ~8.30
as active as 1 in CrtM inhibition ([2]; versus 1): ~4 ×
pIC50 ([2]; read-out: IC50 against CrtM): 5.64

1-Phosphono-4-[3-(4-hydroxyphenoxy)phenyl]butylsulfonic acid tripotassium salt [Compound 27]
pIC50 [1, 6]: 5.17

O=P([O-])([O-])[C@H](CCCc1cccc(Oc2ccccc2)c1)S(=O)(=O)[O-].[K+].[K+].[K+] [Compound (S)-1, (1S)-1-Phosphono-4-(3-phenoxyphenyl)butylsulfonic acid tripotassium salt]
pIC50 [1, 4]: 7.30
more active than its (R)-enantiomer in CrtM inhibition ([2]; fold, versus (R)-1): ~30 ×
pIC50 ([2]; read-out: IC50 against CrtM): 5.85

1-Phosphono-4-[3-(3,4-difluorophenoxy)phenyl]butylsulfonic acid tripotassium salt [Compound 30]
pIC50 [1, 6]: 6.96
CrtM enzyme experimental activity pIC50 ([2]; Table 5): 5.76
pIC50 [2, 7]: 5.77
pIC50 [2, 5]: 5.77

1-Phosphono-4-[3-(4-fluorophenoxy)-6-methoxy-phenyl]butylsulfonic acid tripotassium salt [Compound 36]
pIC50 [1, 6]: 4.86

O=P([O-])([O-])C(CCCc1ccc(-c2ccccc2)cc1)S(=O)(=O)[O-].[K+].[K+].[K+] (stereo not drawn) [Compound 9, 1-Phosphono-4-(4-biphenyl)butylsulfonic acid tripotassium salt]
pIC50 [1, 4]: 6.46

O=C(CP(=O)(O)O)NCCCc1ccc(-c2ccccc2)cc1 [compound 846]
pIC50 [2]: 3.78

— patent US20120022024A1, “ANTI-BACTERIAL COMPOSITIONS AND METHODS INCLUDING TARGETING VIRULENCE FACTORS OF STAPHYLOCOCCUS AUREUS” (priority 2009, published 2012)
